Data published in patent publication US20110060043A1, “INHIBITORS OF CELL PROLIFERATION AND USES THEREOF” (European Molecular Biology Laboratory (EMBL), priority 2008, published 2011).
pIC50: −log10 of the molar value.

What follows are molecules tested on MCF-7 cells (assay: Cytotoxicity assay (ATPLite cell viability, 72 h) on MCF-7 cells). Conditions: Homo sapiens, MCF7; 72 hours incubation, triplicate, ATP levels (ATPLite), inhibition of growth vs DMSO only control.
Format: cell-based
Protocol: Preferred compounds were analyzed for their ability to inhibit growth of tumour cells (e.g. MCF7, HL60, LL2, HeLa, PC-3, A549 and A375 cells) in vitro. Growth inhibition was tested at various concentrations in a 10 point two fold serial dilution and cells were incubated under standard mammalian tissue culture conditions for 72 hours in triplicate. Cell viability was measured by measuring ATP levels in viable cells using the ATPLite kit (PerkinElmer) as described in the user manual. Raw data was transformed to percentage inhibition of growth compared to a DMSO only control and values were expressed as IC50 in micromolar calculated using XLfit (IDBS).
Molecule `COC(=O)c1ccc(C)c(NS(=O)(=O)c2ccc(OC)cc2)c1` [Compound (IV), 3-[[(4-methoxyphenyl)sulfonyl]amino]-4-methyl-benzoic acid methyl ester] has a pIC50 of 6.64. Molecule `CCOc1ccc(S(=O)(=O)Nc2cc(C(=O)OC)ccc2C)cc1` [Compound (V), 3-[[(4-ethoxyphenyl)sulfonyl]amino]-4-methyl-benzoic acid methyl ester] has a pIC50 of 6.80. `COC(=O)c1ccc(C)c(NS(=O)(=O)c2ccc(C)cc2)c1` [Compound (IX), 3-[[(4-methylphenyl)sulfonyl]amino]-4-methyl-benzoic acid methyl ester] was tested, and the pIC50 was 6.55. `COC(=O)c1ccc(C)c(NS(=O)(=O)c2ccc(Cl)cc2)c1` [Compound (VI), 3-[[(4-chlorophenyl)sulfonyl]amino]-4-methyl-benzoic acid methyl ester] showed a pIC50 of 5.96.
